Data from US20240246977A1, “DEGRADATION OF BRUTON'S TYROSINE KINASE (BTK) BY CONJUGATION OF BTK INHIBITORS WITH E3 LIGASE LIGAND AND METHOD OF USE” (BeiGene Switzerland GmbH, priority 2021, published 2024).

Assays:
HEK-293 cells = experiment: HEK-293 cytotoxicity detection (CellTiter-Glo); assay type: cell-based; conditions: Homo sapiens, 72 h, 72 h incubation, CellTiter-Glo luminescence, read-out: HEK293
Method: HEK-293 cells were treated with compounds diluted in 0.2% DMSO, dilution was done according to the following protocol: (1) making 500× stock solution in DMSO from 5 mM by 4-fold dilution, total 8 doses were included; (2) making 2× solution in cell culture medium by transferring 0.5 ul 500× stock solution into 125 ul medium; (3) adding 50 ul of 2× solution to cells for incubation of 72 h.
25 μl of the CellTiter-Glo®Reagent [(Promega)—Cat No. G7572] was added to each well in the 96-well plate. The contents were mixed for 2 minutes on an orbital shaker to induce cell lysis. The plate was then allowed to incubate at room temperature for 10 minutes to stabilize luminescent signal. Luminescence was recorded on BMG PheraStar with luminescence protocol.
The inhibition percentage of the compound was calculated by the following equation: Inhibition percentage of Compound=100−100×(Signal-low control)/(High control-low control), wherein signal=each test compound group
High control=Cell group with added DMSO and without compound, indicating cells proliferation with no inhibition;
Imax is the maximum percentage of inhibition.
The IC50 value of a compound can be obtained by fitting the following equation
(§1) Wherein, X and Y are known values, and IC50, Hillslope, Top and Bottom are the parameters obtained by fitting with software. Y is the inhibition percentage (calculated from the equation), X is the concentration of the compound; IC50 is the concentration of the compound when the 50% inhibition is reached. The smaller the IC50 value is, the stronger the inhibitory ability of the compound is. Vice versa, the higher the IC50 value is, the weaker the ability the inhibitory ability of the compound is; Hillslope represents the slope of the fitted curve, generally around 1*; Bottom represents the minimum value of the curve obtained by data fitting, which is generally 0%±20%; Top represents the maximum value of the curve obtained by data fitting, which is generally 100%±20%. The experimental data were fitted by calculating and analyzing with Dotmatics data analysis software.

BTK = BTK (Homo sapiens, UniProt Q06187); experiment: BTK cell degradation in TMD-8 cells, HTRF assay; assay type: cell-based; parameters: endogenous in cells; host or cells: TMD-8 cells; conditions: 6 h treatment, IC50 (DC50) of BTK degradation
Chain of BTK (Q06187 whole entry): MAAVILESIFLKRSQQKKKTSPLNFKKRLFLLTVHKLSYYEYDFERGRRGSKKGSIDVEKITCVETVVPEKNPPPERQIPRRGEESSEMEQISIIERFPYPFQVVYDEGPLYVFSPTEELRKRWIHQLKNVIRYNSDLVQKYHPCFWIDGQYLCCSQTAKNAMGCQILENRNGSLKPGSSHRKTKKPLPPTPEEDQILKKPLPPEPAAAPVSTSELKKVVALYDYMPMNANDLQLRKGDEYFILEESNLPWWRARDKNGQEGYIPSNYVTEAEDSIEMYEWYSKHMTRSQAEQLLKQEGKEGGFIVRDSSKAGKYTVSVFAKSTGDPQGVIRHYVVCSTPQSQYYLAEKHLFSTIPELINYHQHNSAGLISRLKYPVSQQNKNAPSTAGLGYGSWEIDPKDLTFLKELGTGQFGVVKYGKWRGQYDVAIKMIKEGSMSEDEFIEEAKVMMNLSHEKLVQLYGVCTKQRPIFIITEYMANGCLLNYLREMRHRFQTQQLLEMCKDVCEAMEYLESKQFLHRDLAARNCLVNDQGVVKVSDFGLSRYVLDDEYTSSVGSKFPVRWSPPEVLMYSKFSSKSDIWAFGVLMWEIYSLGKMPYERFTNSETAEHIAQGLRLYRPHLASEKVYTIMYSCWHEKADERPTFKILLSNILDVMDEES
Method: TMD-8 cells were treated with compounds diluted in 0.2% DMSO, dilution was done according to the following protocol: (1) making 500× stock solution in DMSO from 1 mM by 6-fold dilution, total 8 doses were included; (2) making 2× solution in cell culture medium by transferring 0.5 μl 500× stock solution into 125 μl medium; (3) adding 15 μl of 2× solution to cells for incubation of 6 h.
After 6 h treatment, 10 μl 14×lysis buffer was added to each well; the plate was sealed and incubated for 30 min at room temperature on a plate shaker; Once the cells was lysed, 16 μL of cell lysate were transferred to a PE 384-well HTRF detection plate; 4 μL of pre-mixed HTRF antibodies were added to each well; the plate was covered with a plate sealer, and then spinned at 1000 rpm for 1 min, then incubated overnight at room temperature; the results were read on BMG PheraStar with HTRF protocol (337 nm-665 nm-620 nm).
The inhibition (degradation) percentage of the compound was calculated by the following equation: Inhibition percentage of Compound=100−100×(Signal-low control)/(High control-low control), wherein signal=each test compound group
High control=Cell group with added DMSO and without compound, indicating microplate readings without BTK degradation;
Dmax is the maximum percentage of inhibition (degradation).
The IC50 (DC50) value of a compound can be obtained by fitting the following equation
Y=Bottom+(TOP−Bottom)/(1+((IC50/X)^hillslope))
as §1, with “wherein,” for “Wherein,”

Row | SMILES | DC50 (BTK) [nM] | IC50 (HEK-293 cells) [nM]
1 | Cc1cccc(NC(=O)c2ncc(-c3nn4c(c3C(N)=O)Nc3ccc(N5CCN(CCc6cc(F)c(C7CCC(=O)NC7=O)c(F)c6)CC5)cc3CC4)cc2C)n1 (stereo not shown) [Example B33, 7-(4-(4-(2,6-dioxopiperidin-3-yl)-3,5-difluorophenethyl)piperazin-1-yl)-2-(5-methyl-6-((6-methylpyridin-2-yl)carbamoyl)pyridin-3-yl)-9,10-dihydro-4H-benzo[d]pyrazolo[1,5-a][1,3]diazepine-3-carboxamide] | 17.6 | 400
2 | NC(=O)c1c(-c2ccc(Oc3ccccc3)cc2)nn2c1Nc1cc(N3CCN(CC4CCN(c5ccc6c(c5)C(=O)N(C5CCC(=O)NC5=O)C6=O)CC4)CC3)ccc1CC2 (stereo not shown) [Example A15, 6-(4-((1-(2-(2,6-dioxopiperidin-3-yl)-1,3-dioxoisoindolin-5-yl)piperidin-4-yl)methyl)piperazin-1-yl)-2-(4-phenoxyphenyl)-9,10-dihydro-4H-benzo[d]pyrazolo[1,5-a][1,3]diazepine-3-carboxamide] | 27.9 | 
3 | CC(C)(C)c1ccc(Oc2ccc(-c3nn4c(c3C(N)=O)Nc3ccc(C5CCN(CCC6CCN(c7ccc(N8CCC(=O)NC8=O)cc7)CC6)CC5)cc3CC4)cc2)cc1 [Example A29, 2-(4-(4-(tert-butyl)phenoxy)phenyl)-7-(1-(2-(1-(4-(2,4-dioxotetrahydropyrimidin-1(2H)-yl)phenyl)piperidin-4-yl)ethyl)piperidin-4-yl)-9,10-dihydro-4H-benzo[d]pyrazolo[1,5-a][1,3]diazepine-3-carboxamide] | 16.3 | 
4 | NC(=O)c1c(-c2ccc(Oc3ccccc3)cc2)nn2c1Nc1cc(C(=O)N3CCN(CC4CCN(c5ccc6c(c5)C(=O)N(C5CCC(=O)NC5=O)C6=O)CC4)CC3)ccc1CC2 (stereo not shown) [Example A19, 6-(4-((1-(2-(2,6-dioxopiperidin-3-yl)-1,3-dioxoisoindolin-5-yl)piperidin-4-yl)methyl)piperazine-1-carbonyl)-2-(4-phenoxyphenyl)-9,10-dihydro-4H-benzo[d]pyrazolo[1,5-a][1,3]diazepine-3-carboxamide] | 17.9 | 
5 | Cc1c(C(=O)Nc2cn(C)cn2)ccc(-c2nn3c(c2C(N)=O)Nc2ccc(N4CCN(CCc5cc(F)c([C@H]6CCC(=O)NC6=O)c(F)c5)CC4)cc2CC3)c1F [Example B89, (R)-7-(4-(4-(2,6-dioxopiperidin-3-yl)-3,5-difluorophenethyl)piperazin-1-yl)-2-(2-fluoro-3-methyl-4-((1-methyl-1H-imidazol-4-yl)carbamoyl)phenyl)-9,10-dihydro-4H-benzo[d]pyrazolo[1,5-a][1,3]diazepine-3-carboxamide] |  | > 10000

More lines, main results first:

Row | DC50 (BTK) [nM] | SMILES | IC50 (HEK-293 cells) [nM]
6 | 4.38 | COc1ccccc1C(=O)NCc1ccc(-c2nn3c(c2C(N)=O)Nc2ccc(N4CCN(CC5CCN(c6ccc(N7CCC(=O)NC7=O)cc6)CC5)CC4)cc2CC3)c(F)c1C [Example C46, 7-(4-((1-(4-(2,4-dioxotetrahydropyrimidin-1(2H)-yl)phenyl)piperidin-4-yl)methyl)piperazin-1-yl)-2-(2-fluoro-4-((2-methoxybenzamido)methyl)-3-methylphenyl)-9,10-dihydro-4H-benzo[d]pyrazolo[1,5-a][1,3]diazepine-3-carboxamide] | > 10000
7 | 4.97 | Cc1cccc(NC(=O)c2ccc(-c3nn4c(c3C(N)=O)Nc3ccc(N5CCN(Cc6ccc7c(c6)C(C)(C)C(=O)N7C6CCC(=O)NC6=O)CC5)cc3CC4)c(F)c2C)n1 (stereo not shown) [Example B60, 7-(4-((1-(2,6-dioxopiperidin-3-yl)-3,3-dimethyl-2-oxoindolin-5-yl)methyl)piperazin-1-yl)-2-(2-fluoro-3-methyl-4-((6-methylpyridin-2-yl)carbamoyl)phenyl)-9,10-dihydro-4H-benzo[d]pyrazolo[1,5-a][1,3]diazepine-3-carboxamide] | > 10000
8 | 1.7 | Cc1c(C(=O)Nc2cscn2)ccc(-c2nn3c(c2C(N)=O)Nc2ccc(N4CCN(CCc5cc(F)c([C@H]6CCC(=O)NC6=O)c(F)c5)CC4)cc2CC3)c1F [Example B95, (R)-7-(4-(4-(2,6-dioxopiperidin-3-yl)-3,5-difluorophenethyl)piperazin-1-yl)-2-(2-fluoro-3-methyl-4-(thiazol-4-ylcarbamoyl)phenyl)-9,10-dihydro-4H-benzo[d]pyrazolo[1,5-a] [1,3]diazepine-3-carboxamide] | 
9 | 8.05 | Cc1cccc(NC(=O)c2ccc(-c3nn4c(c3C(N)=O)Nc3ccc(N5CCN(CC6CCN(c7ccc(CN8CCC(=O)NC8=O)cc7)CC6)CC5)cc3CC4)c(F)c2C)n1 [Example B69, 7-(4-((1-(4-((2,4-dioxotetrahydropyrimidin-1(2H)-yl)methyl)phenyl)piperidin-4-yl)methyl)piperazin-1-yl)-2-(2-fluoro-3-methyl-4-((6-methylpyridin-2-yl)carbamoyl)phenyl)-9,10-dihydro-4H-benzo[d]pyrazolo[1,5-a][1,3]diazepine-3-carboxamide] | 
10 | 1.31 | NC(=O)c1c(-c2ccc(Oc3ccccc3)cc2)nn2c1Nc1ccc(N3CCN(CCC4CCN(c5ccc(N6CCC(=O)NC6=O)cc5)CC4)CC3)cc1CC2 [Example A22, 7-(4-(2-(1-(4-(2,4-dioxotetrahydropyrimidin-1(2H)-yl)phenyl)piperidin-4-yl)ethyl)piperazin-1-yl)-2-(4-phenoxyphenyl)-9,10-dihydro-4H-benzo[d]pyrazolo[1,5-a][1,3]diazepine-3-carboxamide] | 
11 | 8.66 | Cc1cccc(NC(=O)c2ccc(-c3nn4c(c3C(N)=O)Nc3ccc(N5CCN(CC6CCN(c7cccc(CN8CCC(=O)NC8=O)c7)CC6)CC5)cc3CC4)c(F)c2C)n1 [Example B70, 7-(4-((1-(3-((2,4-dioxotetrahydropyrimidin-1(2H)-yl)methyl)phenyl)piperidin-4-yl)methyl)piperazin-1-yl)-2-(2-fluoro-3-methyl-4-((6-methylpyridin-2-yl)carbamoyl)phenyl)-9,10-dihydro-4H-benzo[d]pyrazolo[1,5-a][1,3]diazepine-3-carboxamide] | 
12 | 9.71 | NC(=O)c1c(-c2ccc(Oc3ccccc3)cc2)nn2c1Nc1ccc(NCC3CCN(c4cc5c(cc4F)C(=O)N(C4CCC(=O)NC4=O)C5=O)CC3)cc1CC2 (stereo not shown) [Example A16, 7-(((1-(2-(2,6-dioxopiperidin-3-yl)-6-fluoro-1,3-dioxoisoindolin-5-yl)piperidin-4-yl)methyl)amino)-2-(4-phenoxyphenyl)-9,10-dihydro-4H-benzo[d]pyrazolo[1,5-a][1,3]diazepine-3-carboxamide] | 
13 | 14.4 | NC(=O)c1c(-c2ccc(Oc3ccccc3)cc2)nn2c1Nc1cc(C(=O)NC3CCN(CC4CCN(c5cc6c(cc5F)C(=O)N(C5CCC(=O)NC5=O)C6=O)CC4)CC3)ccc1CC2 (stereo not shown) [Example A17, N^6-(1-((1-(2-(2,6-dioxopiperidin-3-yl)-6-fluoro-1,3-dioxoisoindolin-5-yl)piperidin-4-yl)methyl)piperidin-4-yl)-2-(4-phenoxyphenyl)-9,10-dihydro-4H-benzo[d]pyrazolo[1,5-a][1,3]diazepine-3,6-dicarboxamide] | 
